# Test results reported in patent US20230278972A1, “SUBSTITUTED HALOALKYL SULFONANILIDE HERBICIDES” (FMC Corporation, priority 2020, published 2023).
# How the values were obtained:
# Type in all cases: in vivo
# [1] = system: wheat (Triticum aestivum); assay: Test A postemergence, wheat; details: Postemergence, 0 to 100 scale (0 no effect, 100 complete control); for Wheat plant response rating: visual injury vs untreated controls after approx. 10 days
# In short: (§1)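 Compounds in non-phytotoxic solvent with surfactant. Soil: loam/sand. Preemergence via directed soil spray after seeding; postemergence on seedlings 2–10 cm, one- to two-leaf.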
# [2] = system: ragweed (common ragweed, Ambrosia artemisiifolia); assay: Test A preemergence, ragweed; details: Preemergence; for Ragweed plant response rating: visual injury on 0 to 100 scale (0 no effect, 100 complete control), approximately 10 days; for Plant response rating, Ragweed: 0 to 100 scale (0 no effect, 100 complete control)
# In short: (§2)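 Directed soil spray at planting gave the preemergence treatment, while foliar application to one- to two-leaf seedlings (2–10 cm) gave the postemergence one; pots held a loam and sand mixture and chemicals were carried in a non-phytotoxic solvent with surfactant.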
# [3] = system: ragweed (common ragweed, Ambrosia artemisiifolia); assay: Test A postemergence, ragweed; details: Postemergence, 0 to 100 scale (0 no effect, 100 complete control); for Ragweed plant response rating: visual injury vs untreated controls after approx. 10 days
# In short: as §2
# [4] = system: blackgrass (Alopecurus myosuroides); assay: Test A postemergence, blackgrass; details: Postemergence, 0 to 100 scale (0 no effect, 100 complete control); for Blackgrass plant response rating: visual injury vs untreated controls after approx. 10 days
# In short: as §2
# [5] = system: kochia (Bassia scoparia); assay: Test A preemergence, kochia; details: Preemergence; for Kochia plant response rating: visual injury on 0 to 100 scale (0 no effect, 100 complete control), approximately 10 days; for Plant response rating, Kochia: 0 to 100 scale (0 no effect, 100 complete control)
# In short: as §2
# [6] = system: galium (catchweed bedstraw, Galium aparine); assay: Test A postemergence, galium; details: Postemergence, 0 to 100 scale (0 no effect, 100 complete control); for Galium plant response rating: visual injury vs untreated controls after approx. 10 days
# In short: as §1
# [7] = system: pigweed (Amaranthus retroflexus); assay: Test A preemergence, pigweed; details: for Pigweed plant response rating: visual injury on 0 to 100 scale (0 no effect, 100 complete control), approximately 10 days; for Plant response rating, Pigweed: 0 to 100 scale (0 no effect, 100 complete control)
# In short: as §1
# [8] = system: Foxtail, Giant (giant foxtail, Setaria faberi); assay: Test A preemergence, Foxtail, Giant; details: Preemergence; for Foxtail, Giant plant response rating: visual injury on 0 to 100 scale (0 no effect, 100 complete control), approximately 10 days; for Plant response rating, Foxtail, Giant: 0 to 100 scale (0 no effect, 100 complete control)
# In short: as §2
# [9] = system: kochia (Bassia scoparia); assay: Test A postemergence, kochia; details: Postemergence, 0 to 100 scale (0 no effect, 100 complete control); for Kochia plant response rating: visual injury vs untreated controls after approx. 10 days
# In short: as §2
# [10] = system: pigweed (Amaranthus retroflexus); assay: Test A postemergence, pigweed; details: Postemergence, 0 to 100 scale (0 no effect, 100 complete control); for Pigweed plant response rating: visual injury vs untreated controls after approx. 10 days
# In short: as §2
# [11] = system: barnyardgrass (Echinochloa crus-galli); assay: Test A preemergence, barnyardgrass; details: Preemergence; for Barnyardgrass plant response rating: visual injury on 0 to 100 scale (0 no effect, 100 complete control), approximately 10 days; for Plant response rating, Barnyardgrass: 0 to 100 scale (0 no effect, 100 complete control)
# In short: as §2
# [12] = system: barnyardgrass (Echinochloa crus-galli); assay: Test A postemergence, barnyardgrass; details: Postemergence, 0 to 100 scale (0 no effect, 100 complete control); for Barnyardgrass plant response rating: visual injury vs untreated controls after approx. 10 days
# In short: as §1
# [13] = system: Ryegrass, Italian (Italian ryegrass, Lolium multiflorum); assay: Test A postemergence, Ryegrass, Italian; details: Postemergence, 0 to 100 scale (0 no effect, 100 complete control); for Ryegrass, Italian plant response rating: visual injury vs untreated controls after approx. 10 days
# In short: as §2
# [14] = system: Foxtail, Giant (giant foxtail, Setaria faberi); assay: Test A postemergence, Foxtail, Giant; details: Postemergence, 0 to 100 scale (0 no effect, 100 complete control); for Foxtail, Giant plant response rating: visual injury vs untreated controls after approx. 10 days
# In short: as §2
# [15] = system: corn (Zea mays); assay: Test A postemergence, corn; details: Postemergence, 0 to 100 scale (0 no effect, 100 complete control); for Corn plant response rating: visual injury vs untreated controls after approx. 10 days
# In short: as §2
# [16] = system: Ryegrass, Italian (Italian ryegrass, Lolium multiflorum); assay: Test A preemergence, Ryegrass, Italian; details: Preemergence; for Ryegrass, Italian plant response rating: visual injury on 0 to 100 scale (0 no effect, 100 complete control), approximately 10 days; for Plant response rating, Ryegrass, Italian: 0 to 100 scale (0 no effect, 100 complete control)
# In short: as §2
# [17] = 125 g ai/ha, visual injury approx. 10 days
# [18] = 125 g ai/ha, visual injury, approx. 10 days
# [19] = 500 g ai/ha, visual injury, approx. 10 days
smiles,measurement,setting,value
COc1cc(C)c(NS(=O)(=O)C(F)(F)F)cc1-c1ccnn(C)c1=O [Compound 81],"Plant response rating, Wheat",[1]; [17],40
same,Wheat plant response rating,[1]; 500 g ai/ha,60
same,Ragweed plant response rating,[2]; 125 g ai/ha,30
same,"Plant response rating, Ragweed",[2]; 500 g ai/ha,40
same,"Plant response rating, Ragweed",[3]; [17],20
same,Ragweed plant response rating,[3]; 500 g ai/ha,60
same,"Plant response rating, Blackgrass",[4]; [17],0
same,Blackgrass plant response rating,[4]; 500 g ai/ha,70
same,Kochia plant response rating,[5]; 125 g ai/ha,0
same,"Plant response rating, Kochia",[5]; 500 g ai/ha,80
same,"Plant response rating, Galium",[6]; [17],80
same,Galium plant response rating,[6]; 500 g ai/ha,90
same,Pigweed plant response rating,[7]; 125 g ai/ha,30
same,"Plant response rating, Pigweed",[7]; 500 g ai/ha,100
same,"Foxtail, Giant plant response rating",[8]; 125 g ai/ha,100
same,"Plant response rating, Foxtail, Giant",[8]; 500 g ai/ha,100
same,"Plant response rating, Kochia",[9]; [17],40
same,Kochia plant response rating,[9]; 500 g ai/ha,50
same,"Plant response rating, Pigweed",[10]; [17],20
same,Pigweed plant response rating,[10]; 500 g ai/ha,60
same,Barnyardgrass plant response rating,[11]; 125 g ai/ha,90
same,"Plant response rating, Barnyardgrass",[11]; 500 g ai/ha,90
same,"Plant response rating, Barnyardgrass",[12]; [17],70
same,Barnyardgrass plant response rating,[12]; 500 g ai/ha,80
same,"Plant response rating, Ryegrass, Italian",[13]; [17],0
same,"Ryegrass, Italian plant response rating",[13]; 500 g ai/ha,60
same,"Plant response rating, Foxtail, Giant",[14]; [17],90
same,"Foxtail, Giant plant response rating",[14]; 500 g ai/ha,90
same,"Plant response rating, Corn",[15]; [17],0
same,Corn plant response rating,[15]; 500 g ai/ha,20
same,"Ryegrass, Italian plant response rating",[16]; 125 g ai/ha,30
same,"Plant response rating, Ryegrass, Italian",[16]; 500 g ai/ha,50
CCC1(CC)CC(c2cc(NS(=O)(=O)C(F)(F)F)c(C)cc2C)=NO1 [Compound 209],"Plant response rating, Wheat",[1]; 125 g ai/ha,0
same,Wheat plant response rating,[1]; 500 g ai/ha,0
same,"Plant response rating, Ragweed",[2]; [18],0
same,"Plant response rating, Ragweed",[2]; 500 g ai/ha,60
same,"Plant response rating, Ragweed",[3]; 125 g ai/ha,40
same,Ragweed plant response rating,[3]; 500 g ai/ha,60
same,"Plant response rating, Blackgrass",[4]; 125 g ai/ha,20
same,Blackgrass plant response rating,[4]; 500 g ai/ha,30
same,"Plant response rating, Kochia",[5]; [18],0
same,"Plant response rating, Kochia",[5]; 500 g ai/ha,80
same,"Plant response rating, Galium",[6]; 125 g ai/ha,70
same,Galium plant response rating,[6]; 500 g ai/ha,80
same,"Plant response rating, Pigweed",[7]; [18],0
same,"Plant response rating, Pigweed",[7]; 500 g ai/ha,50
same,"Plant response rating, Foxtail, Giant",[8]; [18],20
same,"Plant response rating, Foxtail, Giant",[8]; 500 g ai/ha,70
same,"Plant response rating, Kochia",[9]; 125 g ai/ha,20
same,Kochia plant response rating,[9]; 500 g ai/ha,40
same,"Plant response rating, Pigweed",[10]; 125 g ai/ha,30
same,Pigweed plant response rating,[10]; 500 g ai/ha,50
same,"Plant response rating, Barnyardgrass",[11]; [18],40
same,"Plant response rating, Barnyardgrass",[11]; 500 g ai/ha,90
same,"Plant response rating, Barnyardgrass",[12]; 125 g ai/ha,20
same,Barnyardgrass plant response rating,[12]; 500 g ai/ha,70
same,"Plant response rating, Ryegrass, Italian",[13]; 125 g ai/ha,40
same,"Ryegrass, Italian plant response rating",[13]; 500 g ai/ha,90
same,"Plant response rating, Foxtail, Giant",[14]; 125 g ai/ha,0
same,"Foxtail, Giant plant response rating",[14]; 500 g ai/ha,10
same,"Plant response rating, Corn",[15]; 125 g ai/ha,0
same,Corn plant response rating,[15]; 500 g ai/ha,30
same,"Plant response rating, Ryegrass, Italian",[16]; [18],50
same,"Plant response rating, Ryegrass, Italian",[16]; 500 g ai/ha,90
Cc1cc(Cl)c(NS(=O)(=O)C(F)(F)F)cc1-c1cn(C)c(=O)n(C)c1=O [Compound 29],"Plant response rating, Wheat",[1]; [17],70
same,"Plant response rating, Wheat",[1]; [19],70
same,Ragweed plant response rating,[2]; 125 g ai/ha,60
same,"Plant response rating, Ragweed",[2]; 500 g ai/ha,90
same,"Plant response rating, Ragweed",[3]; [17],80
same,"Plant response rating, Ragweed",[3]; [19],90
same,"Plant response rating, Blackgrass",[4]; [17],80
same,"Plant response rating, Blackgrass",[4]; [19],90
same,Kochia plant response rating,[5]; 125 g ai/ha,40
same,"Plant response rating, Kochia",[5]; 500 g ai/ha,90
same,"Plant response rating, Galium",[6]; [17],90
same,"Plant response rating, Galium",[6]; [19],90
same,Pigweed plant response rating,[7]; 125 g ai/ha,70
same,"Plant response rating, Pigweed",[7]; 500 g ai/ha,90
same,"Foxtail, Giant plant response rating",[8]; 125 g ai/ha,100
same,"Plant response rating, Foxtail, Giant",[8]; 500 g ai/ha,100
same,"Plant response rating, Kochia",[9]; [17],30
same,"Plant response rating, Kochia",[9]; [19],80
same,"Plant response rating, Pigweed",[10]; [17],40
same,"Plant response rating, Pigweed",[10]; [19],50
same,Barnyardgrass plant response rating,[11]; 125 g ai/ha,40
same,"Plant response rating, Barnyardgrass",[11]; 500 g ai/ha,100
same,"Plant response rating, Barnyardgrass",[12]; [17],50
same,"Plant response rating, Barnyardgrass",[12]; [19],90
same,"Plant response rating, Ryegrass, Italian",[13]; [17],70
same,"Plant response rating, Ryegrass, Italian",[13]; [19],90
same,"Plant response rating, Foxtail, Giant",[14]; [17],90
same,"Plant response rating, Foxtail, Giant",[14]; [19],90
same,"Plant response rating, Corn",[15]; [17],0
same,"Plant response rating, Corn",[15]; [19],10
same,"Ryegrass, Italian plant response rating",[16]; 125 g ai/ha,90
same,"Plant response rating, Ryegrass, Italian",[16]; 500 g ai/ha,100
